The record followed here is PMC12454871, “Embedding a feruloyl esterase active site into a thermophilic endoxylanase scaffold for the degradation of feruloylated xylans” (Computational and Structural Biotechnology Journal, 2025).

Test [1] addresses T1, Xyn11 (Pseudothermotoga thermarum, UniProt F7YXD6, L292S/K296H, form not given).
T1 construct: gene Theth_1636; GH10 single-domain TIM barrel, 342 residues; all rows are the designed double mutant Xyn11m1
Nature of the test: phenol red pH-indicator esterase assay, absorbance […] nm. It is filed as biochemical. As to conditions: pH 8.0, 90 °C, 5 mM EPPS, 50 mM NaCl; engineered Ser271-His275-Glu272 esterase site.

Test [2] concerns the target T1, Xyn11. Nature of the test: X-ray crystallography, […] Å. The format is binding. To be noted: native xylanase active site (E144/E251); trapped expression inducer.

T1 sequence (F7YXD6 entry or part of it L292S/K296H, form open): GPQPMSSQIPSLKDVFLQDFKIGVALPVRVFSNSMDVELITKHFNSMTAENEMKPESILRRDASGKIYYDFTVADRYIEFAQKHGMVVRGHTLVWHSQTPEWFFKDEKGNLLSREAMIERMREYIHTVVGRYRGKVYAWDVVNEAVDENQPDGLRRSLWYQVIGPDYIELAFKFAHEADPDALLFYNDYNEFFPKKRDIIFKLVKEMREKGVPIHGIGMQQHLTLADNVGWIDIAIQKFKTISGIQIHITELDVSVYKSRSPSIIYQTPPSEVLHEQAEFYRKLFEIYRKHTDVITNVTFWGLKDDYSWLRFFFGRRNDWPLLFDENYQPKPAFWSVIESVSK

Usually Km stands for the substrate concentration at which the rate is half of its maximum. In the case of `COC(=O)/C=C/c1ccc(O)c(OC)c1` [methyl ferulate], the Michaelis constant (Km) on Xyn11 [1] stood at 2900 ± 200 µM.

For the molecule `CC(C)S[C@@H]1O[C@H](CO)[C@H](O)[C@H](O)[C@H]1O` [IPTG], the “X-ray crystallography, 2.1 Å” value at Xyn11 [2] is “E144 and E251 and includes a trapped IPTG molecule”.
